These results are taken from patent publication US20250325469A1, “Inhibitors of atp synthase - cosmetic and therapeutic uses” (priority 2021, published 2025).

The conditions of data set [1]: cited from earlier work.
The conditions of data set [2]: cited from earlier work. The source holds these as a separate data set.
The conditions of data set [3]: cited from earlier work. The source holds these as a separate data set.
For data set [4] the following is noted: 5.5 (±1.7) ug/kg/min i.v. with inhaled nitric oxide (5 p.p.m.), across all subjects [183]; cited from earlier work.
Data set [5] deals with cells. The conditions noted are these: variant with side-chain chiral amino acids swopped; cited from earlier work.
Data set [6] relates to cells. The conditions noted are these: cited from earlier work.
The conditions of data set [7]: cited from earlier work. This is another data set of the same source.
For data set [8] the following is noted: rats, radioactively labelled [151]; cited from earlier work.
Data set [9] addresses T1, F1F0 ATP hydrolysis (Mus musculus, UniProt P56480+Q03265).
T1 construct: F1F0 ATP hydrolysis is 35% less in brain mitochondria isolated from H+/T+ than wild-type mice; from tissue; host or cells: mitochondria isolated from brain of wild-type and H+/T+ double transgenic mice
The conditions noted are these: cited from earlier work.

The subject of data set [10] is oxidative phosphorylation. As to conditions: State 3 respiration, H+/T+ vs wild-type [130]; cited from earlier work.
The target of data set [11] is T1, F1F0 ATP hydrolysis. The conditions noted are these: brain mitochondria of H+/T+ vs wild-type mice [130]; cited from earlier work.
The conditions of data set [12]: mouse, in vivo; cited from earlier work.
Data set [13] relates to oxidative phosphorylation. The conditions noted are these: cited from earlier work.
In another data set the test system is ROS (superoxide). The experiment in a line: MitoSOX ROS (superoxide) signal in cultured cortical neurons of H+/T+ mice. The conditions noted are these: H+/T+ vs wild-type mitochondria, corrected for MitoSOX accumulation. The format is cell-based, mouse. From the text: (FIG. 6B) Experiments with cortical neurons in culture, after being cultured for 9-10 days, after being extracted from mouse embryos. […] As in FIG. 6A. But this time in cultured cortical neurons from the mice (embryos), wherein the mitochondria of H+/T+ mice have a more hyperpolarized ΨIM (accumulate more TMRM^+) than wild-type. But, as in FIG. 6A, have a more depolarized ΨIM upon FCCP/respiratory chain inhibitor (antimycin A/rotenone) administration. A typical value for ΨIM in normal mitochondria is −140 mV and if we equate the 5 a.u. value for wild-type in the 2nd panel with −140 mV, then the 6 a.u. value of H+/T+here in the 2nd panel is −168 mV. This ΨIM disparity means that H+/T+ mitochondria accumulates more MitoSOX ROS (superoxide) reporting compound in their mitochondrial matrix, wherein this disparity can be calculated using the equation presented earlier, and this disparity is shown here, in the 3rd panel. With this MitoSOX accumulation disparity, one would expect a greater MitoSOX signal from H+/T+ mitochondria, to wild-type mitochondria, in the proportion shown in the 3rd panel. But what is actually experimentally observed is in the 4th panel. Thence H+/T+ mitochondria must produce 66% less ROS (superoxide) than wild-type, which fits with their lower oxidative respiration rate observed in (FIG. 6A). […]

Data set [14] concerns the target T1, F1F0 ATP hydrolysis. The conditions noted are these: colon mitochondria, I/T Tet-on mice [136]; cited from earlier work.
For data set [15], the system named is oxidative phosphorylation. As to conditions: colon mitochondria, I/T Tet-on mice [136]; cited from earlier work.
Data set [16] concerns the target bovine F1F0 ATP hydrolysis (Bos taurus, UniProt P00829+P19483). As to conditions: cited from earlier work.
The mark [17] stands for this setting: 7.47 ug/kg/min for 2 hours (60 mg), at the end of the infusion period.
The mark [18] stands for this setting: COPD patients, 100 mg oral daily for 1 year [168].
The mark [19] stands for this setting: COPD patients, 100 mg oral daily for 1 year, at year end.

Read-outs that look alike come from different tables or passages of the source. Where no end group is shown, it is not given here. [ ]: non-standard residue; d: D form.

In the case of `C=CCNc1nc(NCC=C)nc(N2CCN(C(c3ccc(F)cc3)c3ccc(F)cc3)CC2)n1` [almitrine dimesylate], the “lowest observed almitrine plasma level” value in data set [1] (setting [17]) was 242 ng/mL. The “mean almitrine plasma level” value was 327 ng/mL in data set [1] (setting [17]); 157 ng/mL in data set [1] (7.47 ug/kg/min for 2 hours, 15 minutes afterwards); 154 ng/mL in [1] (7.47 ug/kg/min for 2 hours, 30 minutes afterwards); 105 ng/mL in data set [1] (7.47 ug/kg/min for 2 hours, 60 minutes afterwards); 67 ng/mL in [1] (7.47 ug/kg/min for 2 hours, 120 minutes afterwards); 55 ng/mL in [1] (7.47 ug/kg/min for 2 hours, 600 minutes afterwards). Moreover, in data set [2] (COPD patients, 75 mg oral daily for 6 months), the adverse effects entry is “no adverse effects”. For the same molecule, the “increase in occurrence of a nervous system disorder vs placebo control” value in data set [2] (setting [18]) is 4%. Besides, the “increase in occurrence of paraesthesia vs placebo control” value in [2] (setting [18]) was 5%. For the same molecule, the “increase in occurrence of polyneuropathy vs placebo control” value in data set [2] (setting [18]) is listed as 3.6%. Besides, in data set [2] (COPD patients, 100-200 mg daily for a year [151]), the “incidence of peripheral neuropathy, almitrine vs control group” value is on record as 5 times higher. In addition, the “time at which peripheral neuropathy started to manifest, on average” value in data set [2] (COPD patients, 100-200 mg daily for a year, in a minority [151]) was 7 months. In addition, in data set [2] (healthy subjects, 400 mg oral per day, short term [163]), the safety result is “safe”. Also, the “plasma [almitrine]” value in data set [3] (COPD patients, 50 mg twice daily for 8 weeks, 2 weeks after the study) is 104 ng/mL; in data set [3] (COPD patients, 100 mg twice daily for 8 weeks, 2 weeks after the study) it was 311 ng/mL; in data set [3] (COPD patients, 100-200 mg daily, those presenting peripheral neuropathy, at 3 months) it was 344 ng/mL; in [3] (COPD patients, 100-200 mg daily, those presenting peripheral neuropathy, at 12 months), 617 ng/mL; in data set [3] (COPD patients, 100-200 mg daily, those without peripheral neuropathy, at 3 months) it was 249 ng/mL; in data set [3] (COPD patients, 100-200 mg daily, those without peripheral neuropathy, at 12 months), 387 ng/mL. Further, the “plasma [almitrine] before the morning dose” value in data set [3] (COPD patients, 50 mg twice daily, day 14) is 93 ng/mL; in data set [3] (COPD patients, 50 mg twice daily, day 28) it was 134 ng/mL; in data set [3] (COPD patients, 50 mg twice daily, day 42), 148 ng/mL; in data set [3] (COPD patients, 50 mg twice daily, day 56), 171 ng/mL; in [3] (COPD patients, 100 mg twice daily, day 14) it was 268 ng/mL; in data set [3] (COPD patients, 100 mg twice daily, day 28), 409 ng/mL. Moreover, the “plasma [almitrine] before the morning dose” value is 442 ng/mL in data set [3] (COPD patients, 100 mg twice daily, day 42) and 572 ng/mL in data set [3] (COPD patients, 100 mg twice daily, day 56). The “average trough plasma [almitrine]” value in [3] (COPD patients, 75 mg oral daily for 6 months, at study end) was 302 ng/mL. Also, the “mean plasma [almitrine]” value in data set [3] (COPD patients, 100 mg oral daily 2 months then 1 month none, cycle for 1 year, at end) is 285 ng/mL; in [3] (setting [19]), 409.35 ng/mL. The “trough plasma [almitrine]” value in data set [3] (setting [19]) is 301.8 ng/mL. Besides, the “plasma [almitrine], two 50 mg doses per day vs a single 100 mg oral dose” value in data set [3] (COPD patients, long term [167]) was 2 to 3 times higher. The “time of peak plasma concentration of almitrine after consuming” value in data set [3] (human, oral [151]) was 3.5 ± 0.7 h. In data set [3] (on average across subjects), the oral dose bioavailable is 85%. Further, the “increase of arterial pO2” value in [4] is over 30%.
Consider “Kkwkmrrnqfwvkvqr (K[dK][dW][dK][dM][dR][dR][dN][dQ][dF][dW][dV][dK][dV][dQ][dR]; not fully specified (residue 1); printed as Kkwkmrrnqfwvkvqr; also: retroinverse) [Retroinverse penetratin]”, for which, in the data set on cells [5], the “cellular penetration compared with penetratin” value is listed as “greater cellular penetration than penetratin”. Further, the cellular toxicity result in the data set on cells [6] is on record as “some cellular toxicity”.
As for `C=CCNc1nc(NCC=C)nc(N2CCN(C(c3ccc(F)cc3)c3ccc(F)cc3)CC2)n1` [almitrine], the “mean plasma concentration of almitrine” value in data set [1] (8 μg/kg/min for 20 minutes, during infusion) was 325 ng/mL; in data set [1] (16 μg/kg/min, 20 minutes into the infusion) it was 659 ng/mL. Also, in data set [1] (16 μg/kg/min for 1 hour [177]), the “highest observed plasma almitrine concentration” value was ~1,600 ng/ml. Moreover, the “plasma almitrine concentration, all subjects but one” value in data set [1] (16 μg/kg/min for 1 hour, 2 hours after the infusion stopped [177]) is recorded as “below 400 ng/ml”. The “plasma almitrine concentration, all subjects” value is on record as “below 200 ng/ml” in data set [1] (16 μg/kg/min for 1 hour, by 12 hours [177]) and “greater than 600 ng/ml” in data set [1] (16 μg/kg/min for 1 hour, during infusion [177]). The adverse side-effect entry in [7] (8.3 μg/kg/min for 30 minutes [176]) is listed as “no adverse side-effect was observed”. Further, the plasma lactate concentrations result in data set [7] (16 μg/kg/min infusion) is reported as “remained within the normal range in all patients”. The deleterious effects entry in [7] (16.7 ug/kg/min for 1 hour) was “without deleterious effects”. In addition, in [8], the tissue accumulation result was “especially accumulated in the lungs”.

B1: human H49K IF1 protein: mutant human IF1 protein with a H49K substitution, expressed as transgene in mice (protein, UniProt Q9UII2 26-106, looked up, variant H49K)
ATPase inhibitor, …: GSDQSENVDRGAGSIREAGGAFGKREQAEEERYFRAQSREQLAALKKHKEEEIVHHKKEIERLQKEIERHKQKIKMLKHDD
modifications: expressed as transgene in mice
For the molecule B1, the “inhibition of F1F0 ATP hydrolysis capability” value is given as 25% with F1F0 ATP hydrolysis [9] (Tet-off mice [135]) and 40% in the data set with F1F0 ATP hydrolysis [9] (Tet-on mice [135]). Moreover, the “less O2 consumption” value in [10] is recorded as about 60%. In addition, the “reduction of F1F0 ATP hydrolysis capability” value with F1F0 ATP hydrolysis [11] is reported as 35%. Further, in [12], the “weight, life span and cage behavior” value was “no differences in weight, life span and cage behavior when compared to controls after one year of follow up”. Moreover, the “decrease of State 3 respiration rate” value in [13] (Tet-off mice [135]) is reported as 37%; in data set [13] (Tet-on mice [135]), 44%. The “less ROS (superoxide) produced” value with ROS (superoxide) worked out at 66%.

B2: human IF1 protein: Non-mutant human IF1 protein expressed as transgene in mouse intestine cells (protein, UniProt Q9UII2 26-106, looked up)
ATPase inhibitor, …: GSDQSENVDRGAGSIREAGGAFGKREQAEEERYFRAQSREQLAALKKHHEEEIVHHKKEIERLQKEIERHKQKIKMLKHDD
As for B2, in the data set with F1F0 ATP hydrolysis [14], the “inhibition of F1F0 ATP hydrolysis capability” value is listed as 35%. Besides, the “decrease of oligomycin sensitive respiration rate” value in data set [15] is listed as 60%.

B3: yeast IF1 protein: IF1 protein sequence from yeast (protein, UniProt P01097 23-85, looked up)
F(1)-ATPase inhibitor IF(1), …: SEGSTGTPRGSGSEDSFVKRERATEDFFVRQREKEQLRHLKEQLEKQRKKIDSLENKIDSMTK
For B3, the “inhibition of bovine F1F0 ATP hydrolysis” value in data set [16] is “can inhibit”.
